{"source": "patent US20090220503A1", "about": "“METHOD FOR TREATING CANCERS WITH INCREASED RAS SIGNALING” (THE TRUSTEES OF BOSTON UNIVERSITY, priority 2006, published 2009)", "key": {"KBalb cells [1]": {"test_system": "KBalb cells", "test": "MTT cell proliferation assay, KBalb", "format": "cell-based, mouse", "conditions": "KBalb (mutated p21Ras), 48 h, inhibitor concentration as in Table 3", "protocol": "(§1) FIGS. 1A-1C show effects of different PKC isoform inhibitors on proliferation of mouse fibroblast cells and human pancreatic cells. Cells were grown to 80% confluence in 96-well plates, then treated with the inhibitors at the concentrations indicated in Table I. The corresponding solvents with equivalent volume were used as vehicle controls. After 48 h treatment, cell proliferation was evaluated by MTT assay. Results are presented as the means ±SD. Statistical significance was determined using a paired Student's t-test, and p-values ≦0.05 were considered significant. […] Nuclear-free lysates containing a total of 400 μg protein from each indicated cell type were used for analysis of Ras activity by Raf-RBD pull down.\n(§2) All inhibitors were dissolved in dimethyl sulfoxide for use, and their effects were measured relative to dimethyl sulfoxide (vehicle)-treated controls.\n(§3) Cell Culture and Treatment. NIH/3T3 and Balb cell lines were obtained from ATCC (American Type Culture Collection, Rockville, Md.). NIH/3T3-Ras cells were produced by stable transfection of v-Harvey ras, and selected and maintained in 0.5 mg/ml of Geneticin (Gibco BRL, Gaithersburg, Md.). Ki-v-ras-Balb (KBalb) cells were produced by stable infection of Balb with retroviral vector stocks containing v-Kirsten ras, and were selected and maintained with Geneticin. The human pancreatic tumor lines Hs 766s, BxPC-3 and MIA PaCa-2, were obtained from ATCC. All cell lines were maintained in Dulbecco Modified Eagle medium (DMEM) (Gibco BRL) supplemented with 2 mM 1-glutamine, 100 U/ml of penicillin, and 100 μg/ml of streptomycin (Gibco BRL). […] Cell proliferation was assessed using an MTT [3-(4,5-dimethylthiazol-2-yl)-2,5-diphenyltetrazolium bromide] assay (Roche, Mannheim, Germany). […] The optical densities were quantified at a test wavelength of 550 nm and a reference wavelength of 630 nm on a multiwell spectrophotometer. siRNA Knockdown of PKCδ. siRNA duplexes (siRNAs) were obtained from Qiagen (Valencia, Calif.). […]"}, "MIA PaCa-2 cells": {"test_system": "MIA PaCa-2 cells", "test": "MTT cell proliferation assay, MIA PaCa-2", "format": "cell-based, human", "conditions": "MIA PaCa-2 (mutated p21Ras), 48 h, inhibitor concentration as in Table 3", "protocol": "as §1, §2, §3"}, "Hs766T cells": {"test_system": "Hs766T cells", "test": "MTT cell proliferation assay, Hs766T", "format": "cell-based, human", "conditions": "Hs766T (wild-type p21Ras), 48 h, 20 μM", "protocol": "as §1, §2\n(§4) Cell Culture and Treatment. NIH/3T3 and Balb cell lines were obtained from ATCC (American Type Culture Collection, Rockville, Md.). […] Cell proliferation was assessed using an MTT [3-(4,5-dimethylthiazol-2-yl)-2,5-diphenyltetrazolium bromide] assay (Roche, Mannheim, Germany). […] The optical densities were quantified at a test wavelength of 550 nm and a reference wavelength of 630 nm on a multiwell spectrophotometer. siRNA Knockdown of PKCδ. siRNA duplexes (siRNAs) were obtained from Qiagen (Valencia, Calif.). […]"}, "PKCδ [2]": {"test_system": "PKCδ", "test": "Immunoblot analysis of PKCδ protein levels", "format": "cell-based", "conditions": "20 μM, 48 h, all cell lines tested", "protocol": "(§5) Cell Culture and Treatment. NIH/3T3 and Balb cell lines were obtained from ATCC (American Type Culture Collection, Rockville, Md.). NIH/3T3-Ras cells were produced by stable transfection of v-Harvey ras, and selected and maintained in 0.5 mg/ml of Geneticin (Gibco BRL, Gaithersburg, Md.). Ki-v-ras-Balb (KBalb) cells were produced by stable infection of Balb with retroviral vector stocks containing v-Kirsten ras, and were selected and maintained with Geneticin. The human pancreatic tumor lines Hs 766s, BxPC-3 and MIA PaCa-2, were obtained from ATCC. All cell lines were maintained in Dulbecco Modified Eagle medium (DMEM) (Gibco BRL) supplemented with 2 mM 1-glutamine, 100 U/ml of penicillin, and 100 μg/ml of streptomycin (Gibco BRL). Media was additionally supplemented with 10% DCS (NIH/3T3, NIH/3T3-Ha-v-Ras, Balb/3T3, Ki-v-ras-Balb, and Balb-myc), or 10% FBS (BxPC-3, MIA PaCa-2). Cells were cultured at 37° C. and 5% CO2. Cell Proliferation Assay. Cell proliferation was assessed using an MTT [3-(4,5-dimethylthiazol-2-yl)-2,5-diphenyltetrazolium bromide] assay (Roche, Mannheim, Germany). […] The optical densities were quantified at a test wavelength of 550 nm and a reference wavelength of 630 nm on a multiwell spectrophotometer. siRNA Knockdown of PKCδ. siRNA duplexes (siRNAs) were obtained from Qiagen (Valencia, Calif.). […]"}, "Balb cells": {"test_system": "Balb cells", "test": "MTT cell proliferation assay, Balb", "format": "cell-based, mouse", "conditions": "Balb (wild-type p21Ras), 48 h, 20 μM", "protocol": "as §1, §2, §4"}, "PKCδ [3]": {"test_system": "PKCδ", "format": "cell-based", "protocol": "as §5"}, "NIH/3T3 cells": {"test_system": "NIH/3T3 cells", "test": "Apoptotic (hypodiploid) fraction by propidium iodide flow cytometry, NIH/3T3 cells expressing Ras effectors or effector mutants", "format": "cell-based, mouse", "protocol": "(§6) FIGS. 4A-4D show activation of apoptosis by individual p21^Ras-effector pathways. […] Cells were fixed and stained with propidium iodide, and the apoptotic (hypodiploid) fractions were evaluated by PI staining and flow cytometric analysis using the FL2-H channel. Cells transfected with the empty pSG5 vector served as negative controls. […] NIH/3T3 cells were pre-treated for 30 minutes with Ly294002 (10 μM) before rottlerin (20 μM) was added. The apoptotic (hypodiploid) fractions were evaluated 60 h later. […] The apoptotic (hypodiploid) fractions were evaluated 60 h later. Cells were fixed and stained with propidium iodide. DNA fragmentation was analyzed by flow cytometry using the FL2-H channel.\nCell Culture and Treatment. NIH/3T3 and Balb cell lines were obtained from ATCC (American Type Culture Collection, Rockville, Md.). NIH/3T3-Ras cells were produced by stable transfection of v-Harvey ras, and selected and maintained in 0.5 mg/ml of Geneticin (Gibco BRL, Gaithersburg, Md.). Ki-v-ras-Balb (KBalb) cells were produced by stable infection of Balb with retroviral vector stocks containing v-Kirsten ras, and were selected and maintained with Geneticin. The human pancreatic tumor lines Hs 766s, BxPC-3 and MIA PaCa-2, were obtained from ATCC. All cell lines were maintained in Dulbecco Modified Eagle medium (DMEM) (Gibco BRL) supplemented with 2 mM 1-glutamine, 100 U/ml of penicillin, and 100 μg/ml of streptomycin (Gibco BRL). Media was additionally supplemented with 10% DCS (NIH/3T3, NIH/3T3-Ha-v-Ras, Balb/3T3, Ki-v-ras-Balb, and Balb-myc), or 10% FBS (BxPC-3, MIA PaCa-2). Cells were cultured at 37° C. and 5% CO2. Cell Proliferation Assay. Cell proliferation was assessed using an MTT [3-(4,5-dimethylthiazol-2-yl)-2,5-diphenyltetrazolium bromide] assay (Roche, Mannheim, Germany). […] The optical densities were quantified at a test wavelength of 550 nm and a reference wavelength of 630 nm on a multiwell spectrophotometer. siRNA Knockdown of PKCδ. siRNA duplexes (siRNAs) were obtained from Qiagen (Valencia, Calif.). […] PKCδ protein levels were determined by immunoblot analysis. […] PKCδ activity was measured with an assay kit (Upstate Cell Signaling). […] Immunocomplexes were washed three times with the kinase buffer (20 mM Tris-HCl, 10 mM MgCl2, pH 7.5) and then incubated with a PKC-specific peptide substrate, [γ-^33P]ATP, and inhibitors of cAMP-dependent kinase and calmodulin kinase for 10 min at 30° C. ^33P incorporated into the substrate was separated from residual ^33P using p81 filters and subsequently quantified by scintillation counting. β-actin antibody was used as negative control in immunoprecipitations. p21^Ras Activity Assays. […]"}, "KBalb cells [4]": {"test_system": "KBalb cells", "test": "Apoptotic (hypodiploid) fraction by propidium iodide flow cytometry, KBalb", "format": "cell-based, mouse", "conditions": "60 h", "protocol": "as §6\nCell Culture and Treatment. NIH/3T3 and Balb cell lines were obtained from ATCC (American Type Culture Collection, Rockville, Md.). […] Cell proliferation was assessed using an MTT [3-(4,5-dimethylthiazol-2-yl)-2,5-diphenyltetrazolium bromide] assay (Roche, Mannheim, Germany). […] The optical densities were quantified at a test wavelength of 550 nm and a reference wavelength of 630 nm on a multiwell spectrophotometer. siRNA Knockdown of PKCδ. siRNA duplexes (siRNAs) were obtained from Qiagen (Valencia, Calif.). […] PKCδ protein levels were determined by immunoblot analysis. […] PKCδ activity was measured with an assay kit (Upstate Cell Signaling). […]"}}}
{"smiles": "CCCCCCCCCCCCCCCCOCC(CO)OC", "note": "(stereo not shown) [HMG]", "values": [{"measurement": "cell proliferation (MTT)", "setting": "KBalb cells [1]", "result": "strongly suppressed the growth"}, {"measurement": "cell proliferation (MTT)", "setting": "MIA PaCa-2 cells", "result": "strongly suppressed the growth"}]}
{"smiles": "CC(=O)c1c(O)c(C)c(O)c(Cc2c(O)c3c(c(C(=O)/C=C/c4ccccc4)c2O)OC(C)(C)C=C3)c1O", "note": "[rottlerin, Rottlerin]", "values": [{"measurement": "cell proliferation (MTT)", "setting": "Hs766T cells", "result": "stimulated proliferation"}, {"measurement": "PKCδ protein levels after rottlerin", "setting": "PKCδ [2]", "result": "suppressed PKCδ levels somewhat"}, {"measurement": "cell proliferation (MTT)", "setting": "Balb cells", "result": "stimulated proliferation"}, {"measurement": "cell proliferation (MTT)", "setting": "KBalb cells [1]", "result": "dramatically and specifically decreased the proliferation"}, {"measurement": "PKCδ activity blocked", "setting": "PKCδ [3]", "result": "greater than 95%"}, {"measurement": "apoptosis in cells expressing p21Ras effector mutants S35, G37, C40", "setting": "NIH/3T3 cells; 20 μM, 60 h, C40 greatest", "result": "stimulated apoptosis to some extent"}, {"measurement": "apoptosis in cells expressing Raf or Ral-GEF effectors", "setting": "NIH/3T3 cells; NIH/3T3 Raf-22W, RIF-CAAX, rottlerin 20 μM, 60 h", "result": "induced little apoptosis"}, {"measurement": "apoptotic frequency", "setting": "NIH/3T3 cells; NIH/3T3 with activated PI3K (p110-CAAX), rottlerin 20 μM, 60 h", "result": 38.22, "unit": "%"}, {"measurement": "cell proliferation (MTT)", "setting": "MIA PaCa-2 cells", "result": "dramatically and specifically decreased the proliferation"}]}
{"smiles": "O=c1cc(N2CCOCC2)oc2c(-c3ccccc3)cccc12", "note": "[LY294002]", "values": [{"measurement": "apoptosis induced by PKCδ inhibition blocked", "setting": "KBalb cells [4]; KBalb cells, pre-treatment before rottlerin 20 μM", "result": 50, "unit": "%"}, {"measurement": "decrease of apoptosis induced by rottlerin", "setting": "NIH/3T3 cells; NIH/3T3 p110-CAAX, 20 μM pre-treatment 30 min, then rottlerin 20 μM 60 hours", "result": "~50", "unit": "%"}]}
{"smiles": "COc1cccc(-c2cc(=O)c3ccccc3o2)c1N", "note": "[PD98095]", "values": [{"measurement": "suppression of p21Ras-dependent apoptosis", "setting": "KBalb cells [4]; cells with activated p21Ras, 10 μM pre-treatment, rottlerin 20 μM, lesser degree than PI3K-inhibition", "result": "suppressed p21^Ras-dependent apoptosis to some extent"}]}
{"smiles": "CN(C)CCCn1cc(C2=C(c3c[nH]c4ccccc34)C(=O)NC2=O)c2ccccc21", "note": "[Bis-1, Bisindolylmaleimide I]", "values": [{"measurement": "cell proliferation (MTT)", "setting": "KBalb cells [1]", "result": "strongly suppressed the growth"}, {"measurement": "cell proliferation (MTT)", "setting": "MIA PaCa-2 cells", "result": "strongly suppressed the growth"}]}
